Source: the NIST ThermoML archive (doi:10.1021/je901020a)
Where “and” joins values, the source holds several entries; their conditions need not be identical. Equal values may be shown once. Numbers after ± are expanded uncertainties.

What was measured:
[1] = refractive index (Na D-line) (dimensionless); settings: 101.33 kPa, Liquid, Standard Abbe refractometry
[2] = 101 kPa, Liquid; for speed of sound: Pulse-echo method
[3] = refractive index (Na D-line) (dimensionless); xn = mol fraction of the nth substance listed; settings: 101 kPa, Liquid, Standard Abbe refractometry
[4] = xn = mol fraction of the nth substance listed; settings: 101 kPa, Liquid; for speed of sound: Pulse-echo method

Cc1ccccc1C [1,2-dimethylbenzene]
Settings | mass density, [2] [kg/m3] | refractive index, [1] | speed of sound, [2]
298.15 K | 875.4 ± 0.5 | 1.50262 ± 0.001 | 1350 ± 2 m/s
313.15 K | 862.9 ± 0.5 | 1.49466 ± 0.001 | 1290 ± 2 m/s and 1289 ± 2 m/s

Cc1cc(C)cc(C)c1 [1,3,5-trimethylbenzene]
Settings | mass density, [2] [kg/m3] | refractive index, [1] | speed of sound, [2] [m/s]
298.15 K | 861.1 ± 0.5 | 1.49693 ± 0.001 | 1336 ± 2
313.15 K | 848.8 ± 0.5 | 1.48923 ± 0.001 | 1277 ± 2

Cc1cccc(C)c1 [1,3-dimethylbenzene]
Settings | mass density, [2] [kg/m3] | refractive index, [1] | speed of sound, [2] [m/s]
298.15 K | 859.8 ± 0.5 | 1.49466 ± 0.001 | 1321 ± 2
313.15 K | 846.9 ± 0.5 | 1.48653 ± 0.001 | 1259 ± 2

C1CCCC1 [cyclopentane] + Cc1cc(C)cc(C)c1
Settings | mass density, [4] [kg/m3] | refractive index, [3] | speed of sound, [4] [m/s]
298.15 K, x1 = 0.0383 | 857.8 ± 0.5 | 1.49446 ± 0.0011 | 1332 ± 2
298.15 K, x1 = 0.0884 | 853.3 ± 0.5 | 1.49105 ± 0.0011 | 1325 ± 2
298.15 K, x1 = 0.1869 | 843.9 ± 0.5 | 1.48398 ± 0.0011 | 1311 ± 2
298.15 K, x1 = 0.2531 | 837.5 ± 0.5 | 1.47925 ± 0.0011 | 1302 ± 2
298.15 K, x1 = 0.3849 | 823.5 ± 0.5 | 1.46883 ± 0.0011 | 1283 ± 2
298.15 K, x1 = 0.4879 | 811.9 ± 0.6 | 1.4596 ± 0.0011 | 1269 ± 2
298.15 K, x1 = 0.5891 | 799.5 ± 0.6 | 1.45045 ± 0.0011 | 1255 ± 2
298.15 K, x1 = 0.6926 | 786 ± 0.6 | 1.4403 ± 0.0011 | 1241 ± 2
298.15 K, x1 = 0.7807 | 774 ± 0.6 | 1.43111 ± 0.0011 | 1229 ± 2
298.15 K, x1 = 0.8901 | 757.9 ± 0.6 | 1.41728 ± 0.0011 | 1216 ± 2
298.15 K, x1 = 0.9487 | 748.6 ± 0.6 | 1.40994 ± 0.0011 | 1210 ± 2
298.15 K, x1 = 1 | 740 ± 0.6 | 1.40292 ± 0.001 | 1204 ± 2
313.15 K, x1 = 0.0414 | 845.1 ± 0.5 | 1.48675 ± 0.001 | 1271 ± 2
313.15 K, x1 = 0.0948 | 840.2 ± 0.5 | 1.48324 ± 0.001 | 1263 ± 2
313.15 K, x1 = 0.1986 | 830.2 ± 0.5 | 1.47585 ± 0.00097 | 1248 ± 2
313.15 K, x1 = 0.2985 | 819.9 ± 0.5 | 1.46786 ± 0.00094 | 1232 ± 2
313.15 K, x1 = 0.4078 | 807.7 ± 0.6 | 1.45906 ± 0.00091 | 1216 ± 2
313.15 K, x1 = 0.4703 | 800.3 ± 0.6 | 1.45335 ± 0.00087 | 1206 ± 2
313.15 K, x1 = 0.6043 | 783.5 ± 0.6 | 1.4411 ± 0.00088 | 1186 ± 2
313.15 K, x1 = 0.7006 | 770.4 ± 0.6 | 1.4312 ± 0.001 | 1171 ± 2
313.15 K, x1 = 0.8048 | 755.4 ± 0.6 | 1.42003 ± 0.0015 | 1155 ± 2
313.15 K, x1 = 0.9074 | 739.7 ± 0.6 | 1.40648 ± 0.002 | 1140 ± 2
313.15 K, x1 = 0.9595 | 731.4 ± 0.7 | 1.40014 ± 0.0019 | 1134 ± 2
313.15 K, x1 = 1 | 725 ± 0.7 | 1.39456 ± 0.001 | 1130 ± 2
